Test results as given in US11213567B2, “ZAG-derived peptide and use thereof” (L&C Bio Co., LTD., priority 2017, dated 2022).

Legend:
IL-6 = test: Atopic dermatitis efficacy test using macrophages (RAW 264.7): IL-6 released after LPS, ELISA; format: cell-based, mouse; design: key to RAW 264.7 (mouse) IL-6: •: have statistical significance, determining as effective, compared with the positive control; conditions: for RAW 264.7 (mouse) IL-6: 1 μg/mL for 24 hours, then LPS 0.1 μg/mL 24 hours; for IL-6 concentration released in cell culture medium: Example 2-1, FIG. 2A, RAW 264.7, 1 μg/mL 24 hours, LPS 0.1 μg/mL 24 hours, compared with positive control (Pos)
Description: (§1) To select an amino acid sequence corresponding to a key active site of ZAG having efficacy in the alleviation of atopic symptoms from 18 peptide candidate groups, an atopic dermatitis efficacy test was performed. Five types of immune-related cells were treated with ZAG peptide candidate groups (Z1-Z18, SEQ ID NOs: 1 to 18, respectively) and the ZAG protein (Z0, SEQ ID NOs: 19) at a concentration of 1 μg/mL for 24 hours, and then treated with a stimulator suitable for each cell line for the listed time to confirm an immune response. The experiment was performed with a group treated with only a stimulator as a positive control experimental group, and a group treated with only a vehicle without a stimulator as a negative control experimental group (Table 2: Efficacy test method for atopic dermatitis). An inflammatory response-related enzyme used as a stimulator is produced by immune cells, and histamine initiates an inflammatory response. The immune cells migrating to a damaged region release cytokines such as tumor necrosis factor-α (TNF-α) and interleukin-6 (IL-6) to directly lyse foreign invasive substances or collect other immune cells to initiate an inflammatory response. An efficacy test using inflammation-inducing materials, interferon-γ and skin inflammation-related factor CCL-17/thymus- and activation-regulated chemokine (TARC) was also performed to confirm an immune response.
Macrophages (RAW 264.7 cells) were treated with a stimulator LPS at a concentration of 0.1 μg/mL for 24 hours, and then the concentration of IL-6 released in a cell culture medium was confirmed by ELISA assay.
(§2) Various types of immune cells were treated with each of Z20mer-1, Z20mer-2, Z20mer-3, Z15mer-1, Z15mer-2, Z15mer-3 and Z15mer-4 at a concentration of 1 μg/mL for 24 hours, and then treated with a stimulator suitable for each cell line for the listed time to confirm an immune response. The atopic dermatitis efficacy test method was performed by the same method as described in Example 1 and Table 2.
(§3) The experiment was performed with experimental groups: 1) negative control: vehicle-treated group (Neg), 2) positive control: a group treated with only a stimulator (Pos), and 3) experimental group: groups treated with a stimulator and ZAG3 or a ZAG3-derived oligopeptide (Z20mer-1, Z20mer-2, Z20mer-3, Z15mer-1, Z15mer-2, Z15mer-3 or Z15mer-4). Concentrations were measured from cell culture by ELISA.
Macrophages (RAW 264.7 cells) were treated with a stimulator LPS at a concentration of 0.1 μg/mL for 24 hours, and then a concentration of IL-6 released in a cell culture medium was confirmed by ELISA assay.

Histamine = test: Atopic dermatitis efficacy test using mast cells (RBL-2H3): histamine released after PMA and A23187, ELISA; format: cell-based, rat; design: key: •: have statistical significance, determining as effective, compared with the positive control; conditions: 1 μg/mL for 24 hours, then PMA 1 μg/mL, A23187 1 μg/mL 12 hours
Description: as §1
Mast cells (RBL-2H3) were treated with 1 μg/mL of PMA and 1 μg/mL of A23187 as stimulators for 12 hours, and a concentration of histamine released in a cell culture medium was confirmed by ELISA assay.
as §2, §3
Mast cells (RBL-2H3) were treated with 1 μg/mL of PMA and 1 μg/mL of A23187 as simulators for 12 hours, and then a concentration of histamine released in a cell culture medium was confirmed by ELISA assay. As compared with the positive control (Pos), in all of the oligopeptide-treated groups, the histamine release was reduced (FIG. 2B).

CCL17/TARC = test: Atopic dermatitis efficacy test using keratinocytes (HaCaT): CCL17/TARC released after TNF-α and IFN-γ, ELISA; format: cell-based, human; design: key to HaCaT (human) CCL17/TARC: •: have statistical significance, determining as effective, compared with the positive control; conditions: Table 3; 1 μg/mL for 24 hours, then TNF-α 0.4 μg/mL, IFN-γ 0.4 μg/mL 24 hours; vs stimulator only
Description: as §1
Keratinocytes (HaCaT cells) were treated with 0.4 μg/mL of TNF-α and 0.4 μg/mL of IFN-γ as stimulators for 24 hours, and then a concentration of CCL17/TARC released in a cell culture medium was confirmed by ELISA assay.
as §2, §3

IgE = test: Atopic dermatitis efficacy test using B lymphocytes (RPMI 1788): IgE released after LPS, ELISA; format: cell-based, human; design: key: •: have statistical significance, determining as effective, compared with the positive control; conditions: then LPS 0.1 μg/mL 24 hours
Description: as §1
(§4) B lymphocytes (RPMI 1788) were treated with 0.1 μg/mL of LPS as a stimulator for 24 hours, and a concentration of IgE released in a cell culture medium was confirmed by ELISA assay.
as §2, §3
as §4, with “and then” for “and”, “assay. As compared with the positive control (Pos), in all of the oligopeptide-treated groups, IgE was reduced (FIG. 2D).” for “assay.”

IL-4 = test: Atopic dermatitis efficacy test using T lymphocytes: IL-4 released after IL-2, ELISA; format: cell-based, human; design: key to T lymphocyte (human) IL-4: •: have statistical significance, determining as effective, compared with the positive control; conditions: for IL-4 concentration released in cell culture medium: Example 1-5, FIG. 1E, IL-2 50 ng/mL 12 hours; for IL-4 concentration released in cell culture medium / IL-4: T lymphocytes, 1 μg/mL 24 hours; for T lymphocyte (human) IL-4: 1 μg/mL for 24 hours, then IL-2 50 ng/mL 12 hours; for IL-4: Example 2-5, FIG. 2E, compared with positive control (Pos)
Description: as §1
An atopic dermatitis efficacy test using T lymphocytes was performed with six peptide candidate groups (Z3, Z4, Z5, Z12, Z14, and Z15), which were determined to have efficacy from the results of Examples 1-1 to 1-4 described above. T lymphocytes were treated with 50 ng/mL of IL-2 as a stimulator for 12 hours, and a concentration of IL-4 released in a cell culture medium was confirmed by ELISA assay.
as §2, §3
An experiment was performed on T lymphocytes using the target peptides selected through the previous experiment. As compared with the positive control (Pos), in all of the oligopeptide-treated groups (Z20mer-1, Z20mer-2, Z20mer-3, Z15mer-1, Z15mer-2, Z15mer-3, and Z15mer-4), IL-4 was reduced (FIG. 2E).

[1] = Table 3, 1 μg/mL for 24 hours, vs stimulator only
[2] = Table 5, 1 μg/mL for 24 hours, vs positive control

Z1: ZAG protein-derived peptide, SEQ ID NO. 1: QENQDGRYSLTYIYTGLSKHVEDVPAFQAL (ZAG protein-derived peptide)
RAW 264.7 (mouse) IL-6 (IL-6; Table 3, vs stimulator only): • | RBL-2H3 (rat) Histamine (Histamine; Table 3, vs stimulator only): • | HaCaT (human) CCL17/TARC (CCL17/TARC): •

Z2: ZAG protein-derived peptide, SEQ ID NO. 2: GSLNDLQFFRYNSKDRKSQPMGLWRQVEGM (ZAG protein-derived peptide)
RAW 264.7 (mouse) IL-6 (IL-6; Table 3, vs stimulator only): • | RBL-2H3 (rat) Histamine (Histamine; Table 3, vs stimulator only): • | HaCaT (human) CCL17/TARC (CCL17/TARC): •

Z9: ZAG protein-derived peptide, SEQ ID NO. 9: TYQSWVVVAVPPQDTAPYSCHVQHSSLAQP (listed as Homo sapiens)
RAW 264.7 (mouse) IL-6 (IL-6; Table 3, vs stimulator only): • | RBL-2H3 (rat) Histamine (Histamine; Table 3, vs stimulator only): •

Z10: ZAG protein-derived peptide, SEQ ID NO. 10: GLSKHVEDVPAFQALGSLNDLQFFRYNSKD (ZAG protein-derived peptide)
RAW 264.7 (mouse) IL-6 (IL-6; Table 3, vs stimulator only): • | RBL-2H3 (rat) Histamine (Histamine; Table 3, vs stimulator only): • | HaCaT (human) CCL17/TARC (CCL17/TARC): •

Z11: ZAG protein-derived peptide, SEQ ID NO. 11: RKSQPMGLWRQVEGMEDWKQDSQLQKARED (ZAG protein-derived peptide)
RBL-2H3 (rat) Histamine (Histamine; Table 3, vs stimulator only): •

Z12: ZAG protein-derived peptide, SEQ ID NO. 12: PFDPAAQITKQKWEAEPVYVQRAKAYLEEE (ZAG protein-derived peptide)
HaCaT (human) CCL17/TARC (CCL17/TARC): • | B lymphocyte (human) IgE (IgE; [1]): • | IL-4 concentration released in cell culture medium (IL-4): significantly decreased | T lymphocyte (human) IL-4 (IL-4; Table 3, vs stimulator only): •

Z13: ZAG protein-derived peptide, SEQ ID NO. 13: CPATLRKYLKYSKNILDRQDPPSVVVTSHQ (ZAG protein-derived peptide)
HaCaT (human) CCL17/TARC (CCL17/TARC): • | B lymphocyte (human) IgE (IgE; [1]): •

Z15: ZAG protein-derived peptide, SEQ ID NO. 15: ENNRSSGAFWKYYYDGKDYIEFNKEIPAWV (listed as Homo sapiens)
RBL-2H3 (rat) Histamine (Histamine; Table 3, vs stimulator only): • | IL-4 concentration released in cell culture medium (IL-4): significantly decreased

Z15mer-1: ZAG3-derived oligopeptide, SEQ ID NO. 23: EDWKQDSQLQKARED (ZAG protein-derived peptide)
IL-6 concentration released in cell culture medium (IL-6): significantly decreased | RAW 264.7 (mouse) IL-6 (IL-6; Table 5, vs positive control): • | RBL-2H3 (rat) Histamine (Histamine; Table 5, vs positive control): • | B lymphocyte (human) IgE (IgE; [2]): • | IL-4 (IL-4): reduced | T lymphocyte (human) IL-4 (IL-4; Table 5, vs positive control): •

Z15mer-2: ZAG3-derived oligopeptide, SEQ ID NO. 24: DSQLQKAREDIFMET (ZAG protein-derived peptide)
IL-6 concentration released in cell culture medium (IL-6): significantly decreased | RAW 264.7 (mouse) IL-6 (IL-6; Table 5, vs positive control): • | RBL-2H3 (rat) Histamine (Histamine; Table 5, vs positive control): • | B lymphocyte (human) IgE (IgE; [2]): • | IL-4 (IL-4): reduced | T lymphocyte (human) IL-4 (IL-4; Table 5, vs positive control): •

Z16: ZAG protein-derived peptide, SEQ ID NO. 16: APGEKKKLKCLAYDFYPGKIDVHWTRAGEV (ZAG protein-derived peptide)
B lymphocyte (human) IgE (IgE; [1]): • | T lymphocyte (human) IL-4 (IL-4; Table 3, vs stimulator only): •

Z17: ZAG protein-derived peptide, SEQ ID NO. 17: QEPELRGDVLHNGNGTYQSWVVVAVPPQDT (ZAG protein-derived peptide)
RBL-2H3 (rat) Histamine (Histamine; Table 3, vs stimulator only): • | B lymphocyte (human) IgE (IgE; [1]): •

Z20mer-2: ZAG3-derived oligopeptide, SEQ ID NO. 21: DSQLQKAREDIFMETLKDIV (ZAG protein-derived peptide)
RBL-2H3 (rat) Histamine (Histamine; Table 5, vs positive control): • | B lymphocyte (human) IgE (IgE; [2]): • | IL-4 (IL-4): reduced | T lymphocyte (human) IL-4 (IL-4; Table 5, vs positive control): •

Z20mer-3: ZAG3-derived oligopeptide, SEQ ID NO. 22: KAREDIFMETLKDIVEYYND (ZAG protein-derived peptide)
IL-6 concentration released in cell culture medium (IL-6): significantly decreased | RAW 264.7 (mouse) IL-6 (IL-6; Table 5, vs positive control): • | RBL-2H3 (rat) Histamine (Histamine; Table 5, vs positive control): • | B lymphocyte (human) IgE (IgE; [2]): • | IL-4 (IL-4): reduced | T lymphocyte (human) IL-4 (IL-4; Table 5, vs positive control): •
